Results taken from patent US20170176446A1, “Methods for Determining the Oncogenic Condition of Cell, Uses Thereof, and Methods for Treating Cancer” (INSERM (INSTITUT NATIONAL DE LA SANTE ET DE LA RECHERCHE …, priority 2009, published 2017).

Experiments:
C6 = experiment: Inhibition of OCDO production by PBPE in C6; type: cell-based; conditions: Rattus norvegicus, 40 μM PBPE, 48 hours
Experimental: (§1) An analogous experiment was reproduced with different cell lines, with the cells tested being incubated for 48 hours in a 40 μM solution of PBPE. It was noted that the OCDO was 100% inhibited for all the lines in the following table that were tested:
(§2) Generally, in order to establish the percentages of OCDO inhibition from the thin-layer chromatography (TLC) plates obtained as in assay 2, the radioactive metabolites are identified and quantified on the basis of said plates using a europium-sensitive plate of GP Phosphor screen type (GE Healthcare) and a Storm 840 phosphorimagor (GE Healthcare). The proportion of radiolabeled oxysterols is determined on the autoradiogram obtained by densitometry using the Image Quant 5.2 software. The percentage is calculated on the basis of the ratio between the amount of oxysterols quantified divided by the sum of the amounts of oxysterols (CEE+CE+CT+OCDO). Since the CEE (CE ester) originates exclusively from the CE, the percentage CE is calculated on the basis of the ratio (CE+CEE)/(CE+CEE+CT+OCDO).

TS/A cells = experiment: Tumor size of TS/A tumors implanted in BALB/c mice, intratumoral treatment; type: in vivo; conditions: PBPE 40 μM, 100 μl intratumorally once a day
Experimental: A cell culture of TS/A cells was first performed. These TS/A cells are mouse mammary adenocarcinomas (see Nanni P et al., Clin. Exp. Metastasis, 1983 October-December; 1(4): 373-80). The cells are cultured, at 37° C. under 5% CO2, in a DMEM medium supplemented with 2 g/liter of sodium carbonate, 1.2 mM of glutamine (pH 7.4 at 23° C.), 5% of fetal bovine serum (Gibco) and 2.5 ml of antibiotics per liter of medium (penicillin/streptomycin).
The TS/A cells are recovered with trypsin, washed twice and suspended in PBS buffer. The TS/A cells (approximately 4×10^6 […] cells/0.1 ml) are then injected subcutaneously into the flank of 6-week-old female BALB/c mice (supplied by Charles River). […] The animals (10 mice per group) are monitored regularly for tumor development. The volume of the tumors is calculated according to the following formula: L×l^2×0.5 (L is the length and l is the width of the tumor). The experiment was reproduced twice. The results are given in FIG. 18 (the arrow indicates the beginning of the treatment).

P19 = experiment: Inhibition of OCDO production by PBPE in P19; type: cell-based, murine; conditions: Mus musculus, 40 μM PBPE, 48 hours
Experimental: as §1, §2

MDA-MB-231 = experiment: Inhibition of OCDO production by PBPE in MDA-MB-231; type: cell-based; conditions: Homo sapiens, 40 μM PBPE, 48 hours
Experimental: as §1, §2

Saos-2 = experiment: Inhibition of OCDO production by PBPE in Saos-2; type: cell-based; conditions: Homo sapiens, 40 μM PBPE, 48 hours
Experimental: as §1, §2

ChEH [1] = molecular target: T1, ChEH (Rattus norvegicus, UniProt Q9JJ46); experiment: Determination of the Ki for ChEH on rat liver microsome proteins (Dixon method); type: biochemical; conditions: 150 μg rat liver microsome proteins, [14C]CEα
T1 construct: 150 μg of rat liver microsome proteins are incubated; from tissue; host or cells: rat liver microsomes
T1 sequence (Q9JJ46 1-230): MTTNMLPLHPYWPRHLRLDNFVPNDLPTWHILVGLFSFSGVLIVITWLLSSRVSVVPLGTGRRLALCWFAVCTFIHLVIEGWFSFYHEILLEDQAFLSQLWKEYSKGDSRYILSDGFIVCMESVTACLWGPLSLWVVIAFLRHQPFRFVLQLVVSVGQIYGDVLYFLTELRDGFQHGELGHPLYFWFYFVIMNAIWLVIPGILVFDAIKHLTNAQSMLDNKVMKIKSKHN

SH-N-SH = experiment: Inhibition of OCDO production by PBPE in SH-N-SH; type: cell-based; conditions: Homo sapiens, 48 h, read-out: Inhibition of OCDO production
Experimental: as §1, §2

B-16-F10 = experiment: Inhibition of OCDO production by PBPE in B-16-F10; type: cell-based, murine; conditions: Mus musculus, B16-F10, 40 μM PBPE, 48 hours
Experimental: as §1, §2

HeLa = experiment: Inhibition of OCDO production by PBPE in HeLa; type: cell-based; conditions: Homo sapiens, 40 μM PBPE, 48 hours
Experimental: as §1, §2

U-937 = experiment: Inhibition of OCDO production by PBPE in U-937; type: cell-based; conditions: Homo sapiens, 40 μM PBPE, 48 hours
Experimental: as §1, §2

HT-29 = experiment: Inhibition of OCDO production by PBPE in HT-29; type: cell-based; conditions: Homo sapiens, 40 μM PBPE, 48 hours
Experimental: as §1, §2

TT = experiment: Inhibition of OCDO production by PBPE in TT; type: cell-based; conditions: Homo sapiens, 48 h, read-out: Inhibition of OCDO production
Experimental: as §1, §2

A-549 = experiment: Inhibition of OCDO production by PBPE in A-549; type: cell-based; conditions: Homo sapiens, A549, 40 μM PBPE, 48 hours
Experimental: as §1, §2

OCDO = OCDO content of TS/A tumors by GC/MS; type: in vivo, mice; conditions: PBPE 40 μM, 100 μl intratumorally once a day
Experimental: 5 volumes (relative to the mass removed) of buffer (50 mM Tris-HCl, 150 mM KCl, pH=7.4) are added. The tumors are ground and the homogenates are centrifuged for 5 minutes at 2500 rpm at 4° C. […] After centrifugation (to separate the phases), the organic phase is recovered. The organic phase is evaporated to dryness and then the residue is taken up with 0.5 ml of chloroform. The organic extracts are filtered on 0.5 ml silica cartridges. The polar sterols are eluted sequentially:
1) 0.5 ml of a hexane/chloroform mixture (1/1), 2) 0.5 ml of chloroform, 3) 0.5 ml of ethyl acetate and methanol.
The ethyl acetate fractions are evaporated, silylated (50 μl 1/1 acetonitrile/BSTFA) and then analyzed by GC/MS (2 μl) according to the conditions described above.

ChEH [2] = molecular target: T2, ChEH (Homo sapiens, UniProt Q15125); experiment: Inhibition of ChEH activity in MCF7 cells (TLC of [14C]CE conversion); type: cell-based; conditions: tamoxifen 0.01-5 μM with [14C]CEα; PBPE 0.01-10 μM with [14C]CEβ
T2 construct: MCF7 tumor cells, which originate from the American Tissue Culture Collection (ATCC), were used; host or cells: MCF7
Experimental: For this experiment, an aminoalkyl sterol included in French patent 2 838 741 (and also see: de Medina et al., J Med Chem: 2009, vol. 52, No. 23, p. 7765-7777), having the formula: 6-N-[2-(3H-imidazol-4-yl)ethylamino]cholestane-3β,5α-diol (DDA), was chosen. […]
A thin-layer chromatography was carried out, the plate of which has been reproduced in FIG. 23. On this plate, the incubation is carried out, for lane 1, with [^14C]CE; for lane 2, with [^14C]CT; for lane 3, with the vehicle solvent, which is the same as that used for assays 1 to 5; for lane 4, with [14C]CE and 0.1 μM of the aminoalkyl sterol; and for lane 5, with [^14C]CE and a concentration of 1 μM of the aminoalkyl sterol.

T2 sequence (Q15125 whole entry): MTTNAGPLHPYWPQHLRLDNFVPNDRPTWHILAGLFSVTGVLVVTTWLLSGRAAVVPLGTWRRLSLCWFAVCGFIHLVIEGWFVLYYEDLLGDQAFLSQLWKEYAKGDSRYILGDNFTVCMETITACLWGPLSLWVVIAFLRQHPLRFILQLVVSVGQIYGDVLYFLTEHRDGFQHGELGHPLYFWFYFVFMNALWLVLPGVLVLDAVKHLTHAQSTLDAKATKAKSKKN

Which results are given for `c1ccc(Cc2ccc(OCCN3CCCC3)cc2)cc1` [PBPE, N,N-pyrrolidino-[(4-benzyl)phenoxy]ethanamine]?
inhibition at 40 µM (C6): 100%; Tumor size (% control) (TS/A cells; Day 28): 71.6 ± 7 % control; Tumor size (% control) (TS/A cells; Day 37): 54.5 ± 8 % control; inhibition at 40 µM (P19): 100%; inhibition at 40 µM (MDA-MB-231): 100%; inhibition at 40 µM (Saos-2): 100%; Ki (ChEH [1]): 26.8 ± 6 nM; inhibition at 40 µM (SH-N-SH): 100%; inhibition at 40 µM (B-16-F10): 100%; inhibition at 40 µM (HeLa): 100%; inhibition at 40 µM (U-937): 100%; inhibition at 40 µM (HT-29): 100%; inhibition at 40 µM (TT): 100%; inhibition at 40 µM (A-549): 100%; OCDO (% control) (OCDO; Day 28): 22.5 ± 5 % control; OCDO (% control) (OCDO; Day 37): 9.6 ± 5 % control; inhibition of the ChEH activity (3 days) in MCF7 cells (ChEH [2]): Dose-dependent inhibition
